One may read the IC50 as the concentration needed to halve the response being measured. Read a high IC50 as weaker potency.

This experiment concerns the target T1, Cholecystokinin receptor type A (Rattus norvegicus, UniProt P30551).
T1 sequence (P30551 whole entry): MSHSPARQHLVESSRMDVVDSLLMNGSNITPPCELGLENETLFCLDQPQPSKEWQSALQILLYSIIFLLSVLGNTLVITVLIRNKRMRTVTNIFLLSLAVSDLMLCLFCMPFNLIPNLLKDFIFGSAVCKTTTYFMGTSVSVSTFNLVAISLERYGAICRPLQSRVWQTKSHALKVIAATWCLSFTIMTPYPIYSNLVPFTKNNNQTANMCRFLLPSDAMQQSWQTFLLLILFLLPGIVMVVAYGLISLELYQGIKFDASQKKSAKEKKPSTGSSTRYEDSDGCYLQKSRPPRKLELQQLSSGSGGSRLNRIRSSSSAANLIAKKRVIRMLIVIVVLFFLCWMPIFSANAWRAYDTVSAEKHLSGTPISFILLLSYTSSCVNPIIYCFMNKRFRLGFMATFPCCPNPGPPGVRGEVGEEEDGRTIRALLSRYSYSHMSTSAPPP
Briefly: Inhibitory activity against Cholecystokinin type A receptor in rat pancreas using [125 I ]- CCK-8 as radioligand.

In turn, `Cc1cccc(NC(=O)N[C@@H]2C[C@H](N3CCCCCC3)c3ccccc3N(C)C2=O)c1` displayed an IC50 of 121 nM. The value for `Cc1cccc(NC(=O)N[C@@H]2C[C@@H](N3CCCCCC3)c3ccccc3N(C)C2=O)c1` was 646 nM.

The values are drawn from ChEMBL document CHEMBL1128760, “CCKB selective receptor ligands: novel 1,3,5-trisubstituted benzazepin-2-ones” (Bioorg Med Chem Lett, 1995).
